Measured values as given in ChEMBL document CHEMBL1145625, “QSAR study of mosquito repellents from terpenoid with a six-member-ring” (2008).

Each molecule was assayed on Culex pipiens (assay: Mosquito repellent activity in white mouse assessed as ratio of number of biting mosquito in treated to untreated control at 1.5 hrs).
Type: functional

Compound	Ratio
CC(=O)OC1CC(C)CCC1C(C)C (stereo not given)	38.7
C=C(C)C1CC=C(CCOC(C)=O)CC1 (stereo not given)	58.5
C=C(C)C1CC=C(CCOC(=O)CC)CC1 (stereo not given)	63.6
CC1=CCC(C(C)(C)O)CC1OC=O (stereo not given)	90
CC(=O)OCCC1C2CCC(C2)C1(C)C (stereo not given)	53
CCCOCCC1=CCC2CC1C2(C)C (stereo not given)	72.5
CC1(C)C2CC=C(CCOC=O)C1C2 (stereo not given)	56.1
CCC(CCCC1C2CCC(C2)C1(C)C)OC(C)=O (stereo not given)	50.2
CCC(CCC1C2CCC(C2)C1(C)C)C(C)OC(C)=O (stereo not given)	51.5
CCC(=O)OCCC1C2CCC(C2)C1(C)C (stereo not given)	56.8
CCC(=O)OC1CC(C)CCC1C(C)C (stereo not given)	40.5
CCOCCC1=CCC2CC1C2(C)C (stereo not given)	62.2
CC(=O)OCCC1=CCC2CC1C2(C)C (stereo not given)	60.8
CCC(=O)OCCC1=CCC2CC1C2(C)C (stereo not given)	64.4
CC1(C)C2CC3OC3(C)C1C2 (stereo not given)	37.8
COCCC1=CCC2CC1C2(C)C (stereo not given)	52.1
CC(=O)OC1CC(C(C)(C)O)CC=C1C (stereo not given)	81
CCCC(CCCC1C2CCC(C2)C1(C)C)OC(C)=O (stereo not given)	51.7
CC1CCC(C(C)C)C(O)C1 (stereo not given) [MENTHOL]	53
CC1(C)C2CC=C(CCO)C1C2 (stereo not given) [Nopol]	69
